Reference: ChEMBL document CHEMBL5131473, “One-pot synthesis of oxoaporphines as potent antitumor agents and investigation of their mechanisms of actions” (Eur J Med Chem, 2022)
Active and inactive are the calls of the source. The calls are words filed in the database; no cut-off is given here.

Legend:
Format in all cases: functional, cell-based
T-24 [1] = assay: Antiproliferative activity against human T24 cells assessed as cell growth inhibition measured after 48 hrs by MTT assay; settings: T-24, 48 h
HepG2 = assay: Antiproliferative activity against human HepG2 cells assessed as cell growth inhibition measured after 48 hrs by MTT assay; settings: HepG2, 48 h
MGC-803 = assay: Antiproliferative activity against human MGC-803 cells assessed as cell growth inhibition measured after 48 hrs by MTT assay; settings: MGC-803, 48 h
SK-OV-3 = assay: Antiproliferative activity against human SK-OV-3 cells assessed as cell growth inhibition measured after 48 hrs by MTT assay; settings: SK-OV-3, 48 h
WI-38 = assay: Antiproliferative activity against human WI-38 cells assessed as cell growth inhibition measured after 48 hrs by MTT assay; settings: WI-38, 48 h
T-24 [2] = assay: Induction of mitochondrial membrane potential dysfunction in human T24 cells assessed as mitochondrial fragment condensation at 0.5 to 1 uM by mito-tracker green dye based fluorescence microscopy; settings: dose 0.5-1 µM

Structure (SMILES) | IC50 (T-24 [1]) [µM] | IC50 (HepG2) [µM] | IC50 (MGC-803) [µM] | IC50 (SK-OV-3) [µM] | IC50 (WI-38) [µM] | Activity (T-24 [2])
O=C1c2cc(O)ccc2-c2cccc3ccnc1c23 | 28.9 | > 40 | 21.5 | 29.4 | > 40 | 
COc1cc2c3c(nccc3c1OC)C(=O)c1cc(OCc3ccccc3)ccc1-2 | 7.3 | > 40 | 15.8 | 22.1 | 35.1 | 
Cc1ccc2c(c1)-c1cccc3ccnc(c13)C2=O | 8.6 | 30.1 | 10.6 | 16.7 | 32.4 | 
COc1ccc2c3c(nccc13)C(=O)c1cc(O)ccc1-2 | 12.3 | 34.1 | > 40 | 32.9 | > 40 | 
O=c1[nH]cc(F)c(=O)[nH]1 [FLUOROURACIL] | 39.4 | 20.4 | 39.1 | 21.6 | > 40 | 
O=C1c2cc(Cl)ccc2-c2cccc3ccnc1c23 | 34.1 | 15.3 | 26.3 | > 40 | > 40 | 
Cc1ccc2c(c1)C(=O)c1nccc3cccc-2c13 | 12.4 | 13.1 | 10 | 17 | 28.4 | 
O=C1c2cc([N+](=O)[O-])ccc2-c2cccc3ccnc1c23 | > 40 | > 40 | > 40 | > 40 | > 40 | 
O=C1c2ccc(F)cc2-c2cccc3ccnc1c23 | 21.2 | 27.4 | 17.8 | 27.4 | 36.5 | 
COc1ccc2c3c(nccc13)C(=O)c1cc(OCc3ccccc3)ccc1-2 | 19.1 | 25.8 | 16.7 | 18.5 | 38.6 | 
COc1cc2c(cc1OC)-c1cccc3ccnc(c13)C2=O | 22.3 | 35.9 | 10.9 | > 40 | 38.2 | 
COc1cc2c3c(nccc3c1OC)C(=O)c1ccccc1-2 | 18.3 | 35 | 9.2 | 27.4 | 29.7 | Active
O=C1c2c(F)cccc2-c2cccc3ccnc1c23 | 15.2 | 30.3 | 16.2 | 22.3 | > 40 | Active
COc1cc2c3c(nccc3c1OC)C(=O)c1cc(O)ccc1-2 | 26.2 | 36.9 | 30.9 | 38.4 | > 40 | 
COc1ccc2c3c(nccc13)C(=O)c1ccccc1-2 | 6.5 | 12.8 | 7.3 | 10.4 | 20.4 | 
COc1cc2ccnc3c2c(c1OC)-c1ccccc1C3=O [LYSICAMINE] | 7.3 | > 40 | 15.8 | 12.1 | 6.7 | 
O=C1c2ccc(Cl)cc2-c2cccc3ccnc1c23 | 16.8 | > 40 | 15.9 | 27.2 | > 40 | 
COc1ccc2c(c1)-c1cccc3ccnc(c13)C2=O | 18.9 | 19.6 | 16.6 | 26.1 | > 40 | 
COc1ccc2c(c1)C(=O)c1nccc3cccc-2c13 | 20.4 | 7.3 | 14.8 | 19.4 | 28.7 | 
O=C1c2cc3c(cc2-c2cccc4ccnc1c24)OCO3 | 14.2 | > 40 | 20.8 | 38.1 | > 40 | 
O=C1c2cc(OCc3ccccc3)ccc2-c2cccc3ccnc1c23 | > 40 | > 40 | > 40 | > 40 | > 40 | 
